Data from patent publication EP4778931A1, “ULK1 INHIBITOR, PREPARATION METHOD THEREFOR AND USE THEREOF” (Dovetree Medicines Unus, Inc., priority 2023, dated 2025).

Molecular target: T1, ULK1 (Homo sapiens, UniProt O75385)
T1 construct: purchased Promega V3521
T1 sequence (O75385 1-1050): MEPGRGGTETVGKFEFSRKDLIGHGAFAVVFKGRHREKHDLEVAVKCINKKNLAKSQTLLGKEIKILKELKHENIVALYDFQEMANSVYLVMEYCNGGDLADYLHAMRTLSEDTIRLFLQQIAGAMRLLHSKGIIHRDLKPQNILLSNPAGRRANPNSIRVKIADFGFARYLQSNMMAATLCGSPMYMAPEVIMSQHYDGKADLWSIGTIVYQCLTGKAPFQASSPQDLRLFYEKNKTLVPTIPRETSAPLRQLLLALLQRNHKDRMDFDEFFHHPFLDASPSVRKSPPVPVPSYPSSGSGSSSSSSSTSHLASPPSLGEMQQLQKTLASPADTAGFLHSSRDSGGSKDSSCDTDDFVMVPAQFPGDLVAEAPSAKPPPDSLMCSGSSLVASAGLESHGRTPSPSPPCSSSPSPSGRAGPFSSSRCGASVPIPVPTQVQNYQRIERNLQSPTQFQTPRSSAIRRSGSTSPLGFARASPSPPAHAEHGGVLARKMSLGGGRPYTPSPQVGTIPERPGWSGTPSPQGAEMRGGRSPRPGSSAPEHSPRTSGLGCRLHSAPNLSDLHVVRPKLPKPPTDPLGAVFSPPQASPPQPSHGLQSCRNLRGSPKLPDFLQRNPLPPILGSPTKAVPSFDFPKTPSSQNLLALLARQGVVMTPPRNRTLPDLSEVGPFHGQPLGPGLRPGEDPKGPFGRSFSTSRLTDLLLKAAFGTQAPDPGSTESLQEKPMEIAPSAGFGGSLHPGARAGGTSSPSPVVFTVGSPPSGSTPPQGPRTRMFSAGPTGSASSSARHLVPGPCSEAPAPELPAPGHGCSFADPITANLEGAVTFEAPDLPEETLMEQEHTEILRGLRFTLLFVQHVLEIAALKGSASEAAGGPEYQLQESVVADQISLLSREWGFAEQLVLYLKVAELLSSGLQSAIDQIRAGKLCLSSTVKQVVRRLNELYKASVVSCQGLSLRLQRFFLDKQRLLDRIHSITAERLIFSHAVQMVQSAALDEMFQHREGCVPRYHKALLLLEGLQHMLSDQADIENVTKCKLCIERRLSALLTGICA
Assay: Inhibition of ULK1 protein activity (phosphorylation function), ADP-Glo method
Format: biochemical
Conditions: ADP-Glo; ULK1 (Promega), ATP and MBP substrate, 60 min at room temperature; 10 concentrations, maximum 10 µM; read-out: ULK1 IC50
Description: In this experiment, the inhibitory effect of a compound on the phosphorylation function of ULK1 was detected by ADP-Glo method. The inhibitory effect of the compound of the present disclosure on the ULK1 target was evaluated based on IC50.
Compound formulation: Using an ECHO (Beckman, ECHO650), the compound was serially diluted 3-fold in DMSO in a 384-well plate (PE, 6007290). A total of 10 concentration points were set, with the maximum concentration of the compound being 10 µM, and 50 nL per well. Positive control wells and negative control wells were added with 50 nL DMSO, respectively.
Reaction process: A 32 nM of ULK1 (Promega, V3521) solution was formulated, and 2.5 µL/well was transferred to the compound test wells and the negative control wells (NC). 2.5 µL/well of 1× Assay buffer was added to the positive control wells (PC). A mixed solution of 100 µM of ATP and 1.86 µM of MBP was formulated, and 2.5 µL/well was transferred to the reaction plate. After centrifugation, the reaction was initiated and incubated at room temperature for 60 min. After the reaction was completed, 5 µL/well of ADP-Glo Reagent (Promega, V9102) was added to the reaction plate. After centrifugation, the reaction was incubated at room temperature for 40 minutes. Finally, 10 µL/well of Kinase Detection Buffer was added, followed by centrifugation and incubation at room temperature for 30 min. The chemiluminescence value was read using Envision (PE, Envision2105).
Assay buffer: a reaction buffer; and Kinase Detection buffer: a detection buffer, both were taken from the ADP-Glodetection kit, purchased from Promega, model V9102.
The inhibition ratio of a compound on ULK1 activity was calculated using the following formula: [formula]
The dose-effect curve was fitted using the log(inhibitor) vs. response -Variable slope of the analysis software GraphPad Prism 8, thereby affording the IC50 value of each compound for enzyme activity.

IC50 | Compound
< 100 nM | CN1CCN2c3ccc(Nc4ncc(C(F)(F)F)c(O[C@H]5CC[C@@H](n6cccn6)CC5)n4)cc3COCC2C1 (some centres unmarked) [Compound 7]
< 100 nM | CN1CCN2c3ccc(Nc4ncc(C(F)(F)F)c(OCCCn5nccc5Cl)n4)cc3COCC2C1 (centres unmarked) [Compound 10]
100 to 1000 nM | CN1CCC2(CC1)CCN(c1nc(Nc3ccc4c(c3)COCC3CN(C)CCN43)ncc1C(F)(F)F)CC2 (centres unmarked) [Compound 13]
< 100 nM | CN1CCN2c3ccc(Nc4ncc(C(F)(F)F)c(OCCCN5CCCCC5=O)n4)cc3N(C)C(=O)C2C1 (centres unmarked) [Compound 14]
< 100 nM | CN1CCN2c3ccc(Nc4ncc(C(F)(F)F)c(OCCCN5CCCCC5=O)n4)cc3OCCC2C1 (centres unmarked) [Compound 15]
< 100 nM | CN1CCN2c3ccc(Nc4ncc(C(F)(F)F)c(OCCCN5CCCOC5=O)n4)cc3COCC2C1 (centres unmarked) [Compound 16]
< 100 nM | CC(=O)N1CCN2c3ccc(Nc4ncc(C(F)(F)F)c(N5CCC6(CCN(C)C6)C5)n4)cc3COCC2C1 (centres unmarked) [Compound 18]
< 100 nM | CN1CCC2(CCN(c3nc(Nc4ccc5c(c4)COCC4CN(C6COC6)CCN54)ncc3C(F)(F)F)C2)C1 (centres unmarked) [Compound 19]
